Values after ≈ are worked out from the molar mass of the structure shown.
Tests used:
Cytochrome P450 3A4 = Cytochrome P450 3A4 (Homo sapiens, UniProt P08684); test: Inhibition of CYP3A4 in human liver microsomes using midazolam as substrate; format: ADME, Microsome
Escherichia coli [1] = test: Antibacterial activity against Escherichia coli ATCC 35218 incubated for 24 hrs by serial dilution method; format: functional
Klebsiella pneumoniae = test: Antibacterial activity against Klebsiella pneumoniae ATCC 35657 incubated for 24 hrs by serial dilution method; format: functional
[2] = test system: Mycobacterium tuberculosis; test: Antimycobacterial activity against Mycobacterium tuberculosis H37Rv assessed as inhibition of bacterial growth measured after 24 hrs by turbidity based analysis; format: functional
Escherichia coli [3] = test: Antibacterial activity against Escherichia coli ATCC 8739 assessed as zone of inhibition by agar dilution method; format: functional
Staphylococcus aureus [4] = test: Antibacterial activity against Staphylococcus aureus ATCC 6538 assessed as zone of inhibition by agar dilution method; format: functional
Clostridium perfringens = test: Antibacterial activity against Clostridium perfringens 22 incubated for 18 hrs by microbroth dilution method; format: functional
Bacteroides fragilis = test: Antibacterial activity against Bacteroides fragilis PA-2-II incubated for 18 hrs by microbroth dilution method; format: functional
A549 = test: Antiproliferative activity against human A549 cells assessed as cell growth inhibition measured after 72 hrs by MTT assay; format: functional, cell-based; settings: A549, 72 h
Plasmodium falciparum [5] = test: Antiplasmodial activity against Plasmodium falciparum 3D7 assessed as cell growth inhibition; format: functional, organism-based
Plasmodium falciparum [6] = test: Antiplasmodial activity against chloroquine sensitive Plasmodium falciparum NF54 infected in human red blood cells assessed as reduction in [3H]-hypoxanthine incorporation pretreated for 48 hrs followed by [3H]-hypoxanthine addition measured after 24 hrs by scintillation counting method; format: functional, organism-based
Plasmodium falciparum [7] = test: Antiplasmodial activity against Plasmodium falciparum FCR-3 assessed as cell growth inhibition; format: functional, organism-based
Pseudomonas aeruginosa [8] = test: Antibacterial activity against Pseudomonas aeruginosa NCDC 105 assessed as zone of inhibition at 50 ug/ml by agar well diffusion method; format: functional; settings: read-out: DIZ
Pseudomonas aeruginosa [9] = test: Antibacterial activity against Pseudomonas aeruginosa NCDC 105 assessed as zone of inhibition at 10 ug/ml by agar well diffusion method; format: functional; settings: read-out: DIZ
Pseudomonas aeruginosa [10] = test: Antibacterial activity against Pseudomonas aeruginosa NCDC 105 assessed as zone of inhibition at 100 ug/ml by agar well diffusion method; format: functional; settings: read-out: DIZ
[11] = test system: Mycobacterium tuberculosis; test: Antimycobacterial activity against Mycobacterium tuberculosis H37Rv assessed as inhibition of bacterial growth measured after 7 days by alamar blue dye based microplate analysis; format: functional; settings: 168 h, time 7 day
Escherichia coli [12] = test: Antibacterial activity against Escherichia coli PTCC 1047 assessed as zone of inhibition incubated for 24 hrs by cup-plate agar diffusion method; format: functional
Bacillus subtilis [13] = test: Antibacterial activity against Bacillus subtilis PTCC 1207 assessed as zone of inhibition incubated for 24 hrs by cup-plate agar diffusion method; format: functional
Bacillus subtilis [14] = test: Antibacterial activity against Bacillus subtilis ATCC 6633 incubated for 18 hrs by agar dilution method; format: functional
[15] = test system: Staphylococcus epidermidis; test: Antibacterial activity against Staphylococcus epidermidis ATCC 12228 incubated for 18 hrs by agar dilution method; format: functional
Staphylococcus aureus [16] = test: Antibacterial activity against Staphylococcus aureus ATCC 6538p incubated for 18 hrs by agar dilution method; format: functional
[17] = test system: Human immunodeficiency virus 1; test: Antiviral activity against HIV1 A17 mutant infected in human C8166 cells; format: functional, organism-based; settings: Human immunodeficiency virus 1, A17, C8166
[18] = test system: Human immunodeficiency virus 1; test: Antiviral activity against wild type HIV1 infected in human C8166 cells; format: functional, organism-based; settings: Human immunodeficiency virus 1, C8166
[19] = test system: Human immunodeficiency virus 2; test: Antiviral activity against HIV2 infected in human MT4 cells by MTT assay; format: functional, organism-based; settings: Human immunodeficiency virus 2, MT4
[20] = test system: Human immunodeficiency virus 1; test: Antiviral activity against HIV1 infected in human MT4 cells by MTT assay; format: functional, organism-based; settings: Human immunodeficiency virus 1, MT4

Sequence of Cytochrome P450 3A4 (P08684 whole entry): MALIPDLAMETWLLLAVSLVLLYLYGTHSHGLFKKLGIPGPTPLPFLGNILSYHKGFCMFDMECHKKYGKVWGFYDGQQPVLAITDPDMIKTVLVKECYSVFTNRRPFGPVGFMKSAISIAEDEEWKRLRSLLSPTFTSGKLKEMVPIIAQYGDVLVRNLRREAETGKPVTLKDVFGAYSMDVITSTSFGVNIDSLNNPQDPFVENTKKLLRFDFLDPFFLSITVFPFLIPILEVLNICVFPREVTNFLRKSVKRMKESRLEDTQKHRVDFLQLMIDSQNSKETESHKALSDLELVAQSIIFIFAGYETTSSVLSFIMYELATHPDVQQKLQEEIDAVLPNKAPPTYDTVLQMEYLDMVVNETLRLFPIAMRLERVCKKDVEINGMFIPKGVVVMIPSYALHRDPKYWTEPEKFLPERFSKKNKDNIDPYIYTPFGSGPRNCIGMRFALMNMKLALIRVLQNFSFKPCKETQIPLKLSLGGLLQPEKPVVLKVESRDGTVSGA

In the case of COc1c(N2CC[C@@H](C3(N)CC3)C2)ccc2c(=O)c(C(=O)O)cn([C@@H]3C[C@@H]3F)c12, the Ki (Cytochrome P450 3A4) is reported as 67900 nM.

For O=C(NO)c1cn(C2CC2)c2cc(-n3cc(CN4CCOCC4)nn3)c(F)cc2c1=O, the MIC (Escherichia coli [1]) was 4 µg/mL (≈ 9.34 µM) and the MIC (Klebsiella pneumoniae) was 4 µg/mL (≈ 9.34 µM).

Work on CCn1cc(C(=O)O)c(=O)c2cc(F)c(N3CCN(CC(=O)Nc4nnc(-c5ccc(Cl)cc5Cl)s4)CC3)cc21 yielded an MIC [2] of 8 µg/mL (≈ 13.2 µM).

O=C([O-])c1cn(CCn2cc(C(=O)[O-])c(=O)c3cc(F)c(N4CC5CCCNC5C4)c(F)c32)c2c(F)c(N3CC4CCCNC4C3)c(F)cc2c1=O.[Na+].[Na+] (stereo unspecified) was tested, and the “diameter of the inhibition zone (DIZ)” value (Escherichia coli [3]) was 22 mm and the “diameter of the inhibition zone (DIZ)” value (Staphylococcus aureus [4]) was 15 mm.

With Cc1c(N2C[C@]3(N)CCC[C@]3(F)C2)c(F)cc2c(=O)c(C(=O)O)cn([C@@H]3C[C@@H]3F)c12.Cl.O.O the MIC (Clostridium perfringens) was at most 0.05 µg/mL and the MIC (Bacteroides fragilis) was at most 0.05 µg/mL.

N=C(NS(=O)(=O)c1ccccc1C(F)(F)F)N1CCN(c2cc3c(cc2F)c(=O)c(C(=O)O)cn3-c2ccc(F)cc2F)CC1 gave an IC50 (A549) of 9 nM.

C[C@H]1[C@@H](OC(=O)c2cn(C3CC3)c3cc(N4CCNCC4)c(F)cc3c2=O)O[C@@H]2O[C@@]3(C)CC[C@H]4[C@H](C)CC[C@@H]1[C@@]24OO3 was tested, and the IC50 (Plasmodium falciparum [5]) was 9.97 nM.

Cn1c(-c2ccc(CCCCCCCCCCN3CCCCC3)cc2)cc(=O)c2ccccc21 was tested, and the IC50 (Plasmodium falciparum [6]) was 820 nM.

Cn1cc(C(=O)N/N=C\c2ccccn2)c(=O)c2cc(F)ccc21 showed an IC50 (Plasmodium falciparum [7]) of 3300 nM.

With Cn1c(-c2ccc(CCCCCCBr)cc2)cc(=O)c2ccccc21 the IC50 (Plasmodium falciparum [6]) was 90 nM.

For CCn1cc(C(=O)O)c(=O)c2cc(F)c(N3CCN(CNc4nc5ccc(F)cc5s4)CC3)cc21, the zone of inhibition at 50 µg/mL (Pseudomonas aeruginosa [8]) was 3.8 mm, the zone of inhibition at 10 µg/mL (Pseudomonas aeruginosa [9]) was 3.3 mm and the zone of inhibition at 100 µg/mL (Pseudomonas aeruginosa [10]) was 4.8 mm.

COc1ccc(C(=O)N/N=C(/C)CCN2CCN(c3c(F)cc4c(=O)c(C(=O)O)cn(C5CC5)c4c3OC)CC2)cc1 showed an MIC [11] of 0.5 µM (≈ 0.29 µg/mL).

With CCn1cc(C(=O)O)c(=O)c2cc(F)c(N3CCN(C/C(=N\OC)c4cc5cccc(OC)c5oc4=O)CC3)nc21 the “diameter of the inhibition zone (DIZ)” value (Escherichia coli [12]) was 35 mm and the “diameter of the inhibition zone (DIZ)” value (Bacillus subtilis [13]) was 39 mm.

With O=C(O)c1cn(-c2ccc(F)cc2)c2cc(N3CCN(C/C(=N\O)c4ccccc4)CC3)c(F)cc2c1=O the MIC (Bacillus subtilis [14]) was under 0.125 µg/mL, the MIC [15] was under 0.125 µg/mL and the MIC (Staphylococcus aureus [16]) was under 0.125 µg/mL.

O=C(O)c1cn(C2CC2)c2cc(N3CCN(CNc4nc5ccc([N+](=O)[O-])cc5s4)CC3)c(F)cc2c1=O showed a zone of inhibition at 50 µg/mL (Pseudomonas aeruginosa [8]) of 5.5 mm, a zone of inhibition at 10 µg/mL (Pseudomonas aeruginosa [9]) of 3.5 mm and a zone of inhibition at 100 µg/mL (Pseudomonas aeruginosa [10]) of 6.3 mm.

With CCn1cc(C(=O)O)c(=O)c2cc(F)c(N3CCN(C/C(=N\OC)c4cc5cccc(OC)c5oc4=O)CC3)cc21 the “diameter of the inhibition zone (DIZ)” value (Escherichia coli [12]) was 32 mm and the “diameter of the inhibition zone (DIZ)” value (Bacillus subtilis [13]) was 36 mm.

Work on CC(C)[C@@H](CO)n1cc(C(=O)O)c(=O)c2c(F)c(Cc3cccc(Cl)c3F)ccc21 yielded an EC50 [17] of 82 nM and an EC50 [18] of 32 nM.

For Cn1cc(C(=O)O)c(=O)c2ccc(N3CCN(c4nc5ccccc5s4)CC3)nc21, the EC50 [19] was 40 nM and the EC50 [20] was 60 nM.
